Patent US7794964B2, “Biochip for the detection of phosphorylation and the detection method using the same” (Korea Atomic Energy Research Institute, priority 2008, dated 2010)

Legend:
PKC (Protein Kinase C) = assay: Phosphorylation of PKC substrate on biochip using [γ-32P]ATP; assay type: biochemical; conditions: 0.3 mg/ml substrate on aldehyde treated slide glass; 10 unit/ml PKC; 0.1 μCi/μl [γ-32P]ATP; BSA negative control
Protocol: (§1) To fix substrate on the aldehyde-treated slide glass (Nuricell Inc., Korea), 0.1 mg/ml of the Mep45-kinase substrate fusion protein or 1.25 μg/ml of peptide substrate (Promega, Madison, Wis.) was integrated. Particularly, the recombinant Mep45-kinase substrate fusion protein solution (10% glycerol, PBS, pH 7.5) was prepared at the concentration of 0.1 mg/ml, and this substrate solution was integrated on the aldehyde-treated slide glass at the spot intervals of 300 μm by using microarray device (Genetix Ltd, UK). The size of the spot was regulated to be 300 μm. The integrated biochip was reacted in a humid chamber at room temperature for one hour, leading to fixation.
(§2) The biochip constructed in Example 2 was washed three times with PBS (200 mM NaCl, 3 mM KCl, 2 mM KH2PO4, 1 mM Na2HPO4, pH 7.5), followed by reaction of the kinase and substrate on the chip. Particularly, the chip was washed with kinase buffer (40 mM Tris-HCl, 20 mM MgCl2, 0.1 mg/ml BSA, pH 7.5) once. […]
(§3) 0.3 mg/ml of AAKIQASFRGHMARKK (SEQ. ID. NO: 1) and Mep45 fusion substrate were integrated on the aldehyde treated slide glass, followed by phosphorylation using 10 unit/ml of PKC and 0.1 μCi/μl of [γ-^32P]ATP. Phosphorylation was measured by using X-ray film or X-ray fluorescence spectrometer. […]

cdc2 protein kinase = cdc2 protein kinase (Homo sapiens, UniProt P06493); assay: Phosphorylation of cdc2 protein kinase substrate on biochip using [γ-32P]ATP; assay type: biochemical; conditions: 1.0 mg/ml substrate on aldehyde treated slide glass; 10 unit/ml cdc2 protein kinase; 0.1 μCi/μl [γ-32P]ATP; BSA negative control
Protocol: as §1, §2
as §3, with “1.0” for “0.3”, “PKTPKKAKKL” for “AAKIQASFRGHMARKK”, “2)” for “1)”, “cdc2 protein kinase” for “PKC”

cdc2 protein kinase, sequence (P06493 whole entry): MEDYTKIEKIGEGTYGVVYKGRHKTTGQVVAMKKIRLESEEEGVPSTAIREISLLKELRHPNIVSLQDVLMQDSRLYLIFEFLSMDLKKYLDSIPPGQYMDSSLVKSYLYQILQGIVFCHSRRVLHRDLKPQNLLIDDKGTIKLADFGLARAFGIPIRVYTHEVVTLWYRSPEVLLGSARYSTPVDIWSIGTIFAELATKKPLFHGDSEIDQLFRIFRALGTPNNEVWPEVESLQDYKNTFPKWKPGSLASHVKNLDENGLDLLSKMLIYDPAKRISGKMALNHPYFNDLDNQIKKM
cdc2 protein kinase, sequence (P14635 whole entry partner): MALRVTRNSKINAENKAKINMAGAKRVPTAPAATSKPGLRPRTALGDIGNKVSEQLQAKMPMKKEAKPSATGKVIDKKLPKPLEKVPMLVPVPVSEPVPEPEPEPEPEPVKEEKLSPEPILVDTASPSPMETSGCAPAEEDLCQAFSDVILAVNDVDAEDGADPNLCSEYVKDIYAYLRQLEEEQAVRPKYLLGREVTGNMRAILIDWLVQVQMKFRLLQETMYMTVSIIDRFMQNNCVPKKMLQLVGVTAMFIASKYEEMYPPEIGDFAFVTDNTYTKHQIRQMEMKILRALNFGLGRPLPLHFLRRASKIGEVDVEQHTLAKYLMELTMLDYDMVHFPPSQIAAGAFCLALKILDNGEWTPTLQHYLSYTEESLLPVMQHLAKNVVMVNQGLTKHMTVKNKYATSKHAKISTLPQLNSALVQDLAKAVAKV

Row | phosphorylation signal on the spot (X-ray film or X-ray fluorescence spectrometer) (PKC (Protein Kinase C)) | phosphorylation signal on the spot (X-ray film or X-ray fluorescence spectrometer) (cdc2 protein kinase) | Sequence
1 | clear signal was detected | – | AAKIQASFRGHMARKK (Protein Kinase C substrate) [peptide substrate for PKC (Protein Kinase C)]
2 | – | clear signal was detected | PKTPKKAKKL (cdc2 Protein Kinase substrate) [peptide substrate for cdc2-PK (cdc2 Protein Kinase)]
